In US11535609B2, “Pyrazine-2(1H)-ketone compound preparation method” (ZHANGZHOU PIEN TZE HUANG PHARMACEUTICAL CO., LTD., priority 2019, dated 2022):

Columns and labels:
wild-type FGFR = assay: Inhibitory activity of wild-type kinase in vitro (overall conclusion); format: biochemical, human; details: conclusion in words
Experimental: The IC50 value was determined using ^33P isotope-labeled kinase activity test (Reaction Biology Corp) to evaluate the inhibitory ability of the compounds to be tested on human FGFR4 and VEGFR2.
Buffer conditions: 20 mM 4-(2-hydroxyethyl)-1-piperazineethanesulfonic acid (Hepes) (pH 7.5), 10 mM MgCl2, 1 mM ethylene glycol-bis-(2-aminoethyl ether)tetra acetic acid (EGTA), 0.02% polyoxyethylene lauryl ether (Brij35), 0.02 mg/ml bovine serum albumin (BSA), 0.1 mM sodium vanadate (Na3VO4), 2 mM dithiothreitol (DTT), 1% DMSO.
Experimental steps: At room temperature, the compounds to be tested were dissolved in DMSO to prepare a 10 mM solution for use. The substrate was dissolved in the freshly prepared buffer, and the kinase to be tested was added thereto and mixed well. The DMSO solution in which the compounds to be tested were dissolved was added to the above-mentioned homogeneous reaction solution using acoustic technology (Echo 550). The compound concentration in the reaction solution is 10 μM, 3.33 μM, 1.11 μM, 0.370 μM, 0.123 μM, 41.2 nM, 13.7 nM, 4.57 nM, 1.52 nM, 0.508 nM, or 10 μM, 2.50 μM, 0.62 μM, 0.156 μM, 39.1 nM, 9.8 nM, 2.4 nM, 0.61 nM, 0.15 nM, 0.038 nM. […] After the filter paper was repeatedly washed with 0.75% phosphoric acid solution, the radioactivity of the phosphorylated substrate remaining on the filter paper was measured. […]

[1] = Pharmacokinetics in mice, single gavage; format: in vivo, CD-1 mouse (male)
Experimental: Experimental purpose: To test the pharmacokinetics of the compound in mice
CD-1 mouse (male), vehicle (0.5% (w/v) methylcellulose 0.5% (v/v) Tween 80 aqueous solution), trifluoroacetate of compound 0027.
The vehicle was an aqueous solution of 0.5% (w/v) methylcellulose and 0.5% (v/v) Tween 80, and it was prepared according to the following procedure:
Formulation of Preparations for Intragastric Administration: […]
a. An appropriate amount of the test product was weighed and put into a glass bottle;
b. 70% volume of vehicle (0.5% (w/v) methyl cellulose 0.5% (v/v) Tween 80 aqueous solution) was added;
c. The preparation was stirred until it was visually homogeneous, and subjected to ultrasound in water bath as needed;
e. Make up the remaining volume of 0.5% methylcellulose+0.5% Tween 80, and the mixture was stirred until being visually homogeneous.
Animals in groups 1 and 2 were administrated 5 mg/mL and 30 mg/mL compounds by single gavage, with a dose volume of 10 mL/kg.
The body weight of the animals was weighed before administration, and the administration volume was calculated based on the body weight.
Whole blood samples (30 μL) were collected at the prescribed time (0.25, 0.5, 1, 2, 4, 6, 8, 24 h) through saphenous vein blood collection, and the actual blood collection time was recorded in the test record. The acceptable error of the collection time point was a time point within 1 hour of the administration ±1 minute, and the acceptable error of other time points is a theoretical time ±5%.
All blood samples were immediately transferred to labeled commercial centrifuge tubes containing K2-EDTA. After being collected, the blood samples were centrifuged at 3200 rpm for 10 minutes at 4° C. to aspirate the supernatant plasma, which was quickly placed in dry ice, kept at −20° C. or a lower temperature for LC-MS/MS analysis. The pharmacokinetic parameters were calculated.

COc1cc(OC)c(Cl)c(-c2nc(-c3nc(-c4cn(C)nc4C)cnc3N)cn(C)c2=O)c1
inhibitory activity against wild-type FGFR (wild-type FGFR): good inhibitory activity
selectivity towards FGFR2 and FGFR3 compared to FGFR1 and FGFR4 (wild-type FGFR): relative high selectivity
AUC0-inf ([1]; CD-1 mouse, gavage, 50 mpk): 95.847 µM·h
AUC0-last ([1]; CD-1 mouse, gavage, 50 mpk): 85.826 µM·h
MRT0-inf ([1]; CD-1 mouse, gavage, 50 mpk): 5.39 h
MRT0-last ([1]; CD-1 mouse, gavage, 50 mpk): 4.33 h
T1/2 ([1]; CD-1 mouse, gavage, 50 mpk): 2.46 h
Tmax ([1]; CD-1 mouse, gavage, 50 mpk): 1.00 h
AUC0-last ([1]; CD-1 mouse, gavage, 300 mpk): 699.413 µM·h
MRT0-last ([1]; CD-1 mouse, gavage, 300 mpk): 11.1 h
Tmax ([1]; CD-1 mouse, gavage, 300 mpk): 7.00 h
pharmacokinetic indexes in mice ([1]; conclusion in words): good pharmacokinetic indexes
